Measurements taken from patent publication US8790678B2, “Biomaterials having nanoscale layers and coatings” (Washington University, priority 2006, dated 2014).
One block for each compound: values may come before it. Bridges are numbered along the chain shown (N, C = ends). Where no end group is shown, it is not given here.

How the values were obtained:
[1] = Sulforhodamine B release from preloaded hydrogels; format: physicochemical; conditions: 500 nmol preloaded, 554 nm
Protocol: The effect of gel mesh size on the diffusion of small molecules was tested using a water-soluble dye molecule, sulforhodamine B. Sulforhodamine B (500 nmol) was preloaded into gels formed with PEG-OVS crosslinked with albumin, PEG-diamine, or DTT. The gels were incubated win PBS and the release of sulforhodamine B was detected by visible light spectroscopy at 554 nm over time. The molecular weight of sulforhodamine is 580.7, compared to 379.5 for S1P, and the diffusivity of the dye would be expected to be lower than that of S1P. Using the Wilke-Chang correlation, we calculated a diffusion coefficient of 3.42×10^−6 cm^2/sec for sulforhodamine and 4.15×10^−6 cm^2/sec for S1P, both at 37° C.

[2] = tested on: Human aortic endothelial cells; experiment: Single cell tracking on RGD/PEG-OVS/albumin hydrogels under fluid shear stress; format: cell-based; conditions: for loss of cells from the hydrogel: highest RGD concentration, over 12 h
Protocol: Human aortic endothelial cells seeded onto RGD/PEG-OVS/albumin hydrogels at 1000-2000 cells/cm^2 were tracked under 20 dynes/cm^2 fluid shear stress in HEPES-buffered low serum medium (HEPES-LSM; MCDB 131 with 0.1% FBS, 1% ABAM, […] HEPES, pH 7.4) containing 0.4% FAF-BSA for 12 h.
Time lapse microscopy images were obtained every 2 min for 12 h of endothelial cell migration on the surface of RGD containing PEG hydrogels. The percent of cells remaining on the gels during the course of the experiment was recorded for each RGD concentration. The projected cell areas of all cells were determined by manually outlining the cells after 3 h under 20 dyne/cm^2 shear stress. Single endothelial cells were manually tracked for 12 h to obtain XY-coordinate data for the center of each cell. Coordinate data from every six minutes (Δt=6 min) for all cells in each experiment were saved as variables for analysis in MATLAB (The MathWorks, Natick, Mass.). At each time point i, ti=iΔt, the mean squared displacement was calculated using the overlapping interval method. The speed of each individual was calculated by dividing the root mean-square displacement for a single time interval by the tracking interval (6 min). Each cell's persistence time was determined by fitting the persistent random walk model given by Equation 1: <d^2(t)>=2S^2P[t−P(1−e^−t/P)] [1] using the calculated speed by nonlinear least squares regression analysis as previously described (Dunn 1983; Othmer, Dunbar and Alt 1988; Harms et al. 2005). Speed simply represents the total path length of a cell over time. Persistence time represents the time period between changes in the direction of movement of more than 60°. Path length is calculated as the product of speed and persistence time. Cell dispersion is the product of speed squared and persistence time. Cell areas were obtained by manually tracing cells. All data was analyzed by ANOVA Scheffe post hoc. Endothelial Response to Linear RGD Concentration—Cell Attachment Strength

[3] = Hydrogel mesh size by modified SDS-PAGE gel; format: physicochemical; conditions: PEG-OVS/albumin layer in SDS-PAGE gel
Protocol: The mesh size of PEG-OVS/albumin hydrogels was investigated using a modified SDS-PAGE gel to characterize the migration of albumin through the PEG hydrogels. A 15% acrylamide gel was formed at the bottom of the casting chamber, with a spacer to form a well on the left side of the gel. After the acrylamide solidified, the PEG-OVS/albumin precursor solution was pipetted into the formed well. The casting stand was placed in a humidified 37° C. incubator for 24 h to crosslink the PEG gel. A 7% acrylamide gel was formed over the polymerized gels, followed by a stacking gel. A solution of bovine serum albumin (BSA) was loaded into the wells of the gel, which was run under standard conditions. The gel was stained with Coomassie Blue.

[4] = tested on: D-erythro-sphingosine; experiment: Activity of GST-tagged sphingosine kinase by TLC; format: biochemical, human; conditions: 10 μg/mL protein, 50 μM D-erythro-sphingosine
Excerpt: Hydrogels were formed with the enzyme sphingosine kinase to produce S1P in the materials from a precursor (sphingosine) naturally present in the blood. Human sphingosine kinase was cloned by RT-PCR from human umbilical vein endothelial cell mRNA. The PCR insert with the correct sequence was transferred from the cloning vector to the expression vector, pGEX-6P-1, using the restriction enzymes EcoRI and XhoI, to create an N-terminal GST-tagged sphingosine kinase [SEQ ID NO. 1]. The plasmid with the correct sequence was transfected into BL21 E. coli and the cells were grown to OD600 0.6 in LB medium. Protein expression was induced with 1 mM IPTG. After 3 h, the cells were harvested by centrifugation for 20 min at 6000 g, 4° C. The cells were lysed with lysozyme and sonication. The lysate was centrifuged at 50,000 g for 45 min at 4° C. and the supernatant was filtered. The GST-containing protein was purified using GSTrap FF columns. Activity of the protein (10 μg/mL) was assessed by incubation with 50 μM D-erythro-sphingosine and […] in 0.1% BSA in PBS for 0-30 min, followed by dilution 1:1 with methanol and acidification to pH 1 with HCl. Lipids were extracted into chloroform and analyzed by thin layer chromatography on silica plates with butanol-acetic acid-water 6:2:2, with detection by ninhydrin. There was complete conversion to sphingosine 1-phosphate within 30 min.

[5] = tested on: HAEC; experiment: Centrifugation assay of cell adhesion strength on RGD hydrogels; format: cell-based, human; conditions: range as RGD concentration in PEG-OVS/albumin hydrogel was increased; 6 h adhesion
Protocol: Cell adhesion strengths to the RGD containing hydrogel surfaces were assessed using a centrifugation assay to apply controlled detachment forces. PEG hydrogels (75 μL) of various concentrations of RGD were formed on the bottom of a 48-well non-treated culture plate. Following crosslinking for 24 h, HAEC were seeded onto the gels at 10,000 cells/cm^2 in 500 μL EGM. After 6 h to allow the cells to attach and spread, the gels were washed with DPBS. The wells were filled with DPBS to the top of the wells and then covered with adhesive sealing tape. Images were obtained at 4× to quantify the number of cells initially attached to the hydrogel. […] The percent of cells remaining on the hydrogel was quantified. […]
The effects of changing the linear RGD concentration on the initial adhesion strength of endothelial cells to PEG-OVS/albumin hydrogels were examined. […] Cell adhesion strengths were assessed by centrifugation of inverted, sealed plates containing hydrogels polymerized in the bottoms of wells. The percent of cells remaining adhered to the hydrogels after centrifugation for 5 min was measured for various forces of detachment on each concentration of linear RGD. […]
The initial adhesion strength of endothelial cells to the PEG hydrogels containing cyclic RGD peptide was measured after 6 hours to allow for endothelial cell adhesion. […]

[6] = tested on: Human Umbilical Vein Endothelial Cells (HUVEC); experiment: Cell adhesion assay on layer-by-layer PEG hydrogel coatings; format: cell-based; conditions: RGD peptide attached to PEG-VS/PEG-diamine hydrogel; medium containing serum proteins
Protocol: Hydrogels were formed layer-by-layer by conjugate addition reactions between PEG-VS and PEG-diamine. First, the surface of the substrate was activated to create reactive amine groups. Clean glass coverslips were incubated in 2% 3-aminopropyltriethoxysilane in dry acetone solution for one hour with gentle shaking. The aminophase coverslips were then cured at 100° C. for a 3 h, and stored in a clean Petri dish until use. The activated substrates were incubated with a solution containing 1% eight-arm PEG-VS overnight at pH 8.5 and 37° C. The substrates were subsequently incubated with a solution of 1% PEG-diamine (mol. wt. 3400, Shearwater Polymers) for 1 h at 37° C. This two-step process was repeated to create multiple layers (one layer comprises PEG-VS+PEG-diamine). Between incubations with PEG-VS or PEG-diamine, the surfaces were washed six times with PBS. After the formation of five layers, the substrates were incubated with PEG-VS for 1 h at 37° C. […]
The RGD peptide acetyl-GCGYGRGDSPG [SEQ ID NO. […] The peptide was purified by C18 chromatography and analyzed by MALDI-TOF mass spectrometry. […]
Human Umbilical Vein Endothelial Cells (HUVEC, Clonetics) were grown in endothelial cell growth medium (EGM, Clonetics) on tissue culture polystyrene at 37° C. and 5% CO2. […] Cells on the surfaces were imaged by phase contrast microscopy and the number of cells was counted manually.

[7] = tested on: chorioallantoic membrane (CAM); experiment: Chick chorioallantoic membrane (CAM) angiogenesis assay; format: in vivo, chicken; conditions: 50 ng spotted on Thermanox coverslip, two days
Protocol: Embryonated chicken eggs were incubated blunt-end up in a 37° C. incubator. At embryonal day 6, the top of the egg was cracked and removed using tweezers to create a 1.5 cm diameter opening. The inner shell membrane was removed, exposing the CAM. A 20 μL PEG hydrogel was then placed onto the CAM. As controls, 50 ng bFGF or 50 ng S1P were spotted onto small pieces of Thermanox coverslips (Nunc), air dried and placed onto the CAM. The eggs were sealed with parafilm and returned to the incubator. After two days of incubation, the eggs were reopened and the degree of angiogenesis was visually assessed.

- time to near complete release of dye into PBS [1]: ~6 h
Compound: CCN(CC)c1ccc2c(-c3ccc(S(=O)(=O)O)cc3S(=O)(=O)[O-])c3ccc(=[N+](CC)CC)cc-3oc2c1 [sulforhodamine B]

Compound: Ac-GCNAC*RGDGWC*G (Ac-GCNACRGDGWCG; disulfide 5-11) [cyclic RGD, cyclic RGD peptide cyclized by disulphide formation]
- cell migration speed relative to cells without RGD ([2]; 0.69 mM cyclic RGD, 100 nM S1P): more than twice
- migration speed greater than the highest speed on linear RGD with 100 nM S1P ([2]; 0.69 mM cyclic RGD, 100 nM S1P): 44%
- loss of cells from the hydrogel ([2]; 20 dyne/cm^2): about 20%
- RGD concentration of peak migration speed ([2]; with 100 nM S1P, 20 dyne/cm^2): 0.69 mM

Compound: Albumin: bovine serum albumin loaded on the SDS-PAGE gel
- migration of protein through the PEG hydrogel [3]: hindered

Compound: N-terminal GST-tagged sphingosine kinase: human sphingosine kinase cloned from HUVEC mRNA with N-terminal GST tag
- time to complete conversion to sphingosine 1-phosphate [4]: ≤ 30 min

Compound: acetyl-GCGYGRGDSPG (Ac-GCGYGRGDSPG; not fully specified (C-terminus); printed as acetyl-GCGYGRGDSPG) [linear RGD, cell adhesion-promoting peptide]
- loss of cells from the hydrogel ([2]; 20 dyne/cm^2): less than 5%
- RGD concentration of maximum dispersion ([2]; without S1P): 4.12 mM
- RGD concentration of maximum path length ([2]; without S1P): 4.12 mM
- RGD concentration of maximum cell speed ([2]; without S1P, 20 dynes/cm^2): 4.12 mM
- detachment force required to remove 50% of the cells (F50) [5]: 850-1120 pN
- HUVEC adhesion to multilayered PEG hydrogel [6]: restored HUVEC adhesion

Compound: aprotinin
- migration of protein through the PEG hydrogel [3]: freely passed through

Compound: bFGF: control angiogenic factor in CAM assay
- angiogenic response [7]: strong angiogenic responses

Compound: lysozyme: molecular weight marker (14.4 kDa)
- migration of protein through the PEG hydrogel [3]: freely passed through
